Test results: ChEMBL document CHEMBL1152755, “Synthesis and cytotoxic properties of 4,11-bis[(aminoethyl)amino]anthra[2,3-b]thiophene-5,10-diones, novel analogues of antitumor anthracene-9,10-diones” (2009)
The source made the active and inactive calls. No cut-off for these calls is given here.

Experiments:
K562 = assay: Resistance index, ratio IC50 for human K562 cells to IC50 for P-gp positive human K562 cells; assay type: functional
[1] = biological target: Telomerase reverse transcriptase (Homo sapiens) (UniProt O14746); assay: Inhibition of telomerase at 1 uM by TRAP assay
HCT-116 = assay: Resistance index, ratio IC50 for HCT116 cells to IC50 for p53 deleted human HCT116 cells; assay type: functional
[2] = biological target: T1, DNA topoisomerase 1 (Homo sapiens) (UniProt P11387); assay: Inhibition of topoisomerase 1-mediate pHot DNA relaxation measured by electrophoretic mobility
T1 sequence (whole entry): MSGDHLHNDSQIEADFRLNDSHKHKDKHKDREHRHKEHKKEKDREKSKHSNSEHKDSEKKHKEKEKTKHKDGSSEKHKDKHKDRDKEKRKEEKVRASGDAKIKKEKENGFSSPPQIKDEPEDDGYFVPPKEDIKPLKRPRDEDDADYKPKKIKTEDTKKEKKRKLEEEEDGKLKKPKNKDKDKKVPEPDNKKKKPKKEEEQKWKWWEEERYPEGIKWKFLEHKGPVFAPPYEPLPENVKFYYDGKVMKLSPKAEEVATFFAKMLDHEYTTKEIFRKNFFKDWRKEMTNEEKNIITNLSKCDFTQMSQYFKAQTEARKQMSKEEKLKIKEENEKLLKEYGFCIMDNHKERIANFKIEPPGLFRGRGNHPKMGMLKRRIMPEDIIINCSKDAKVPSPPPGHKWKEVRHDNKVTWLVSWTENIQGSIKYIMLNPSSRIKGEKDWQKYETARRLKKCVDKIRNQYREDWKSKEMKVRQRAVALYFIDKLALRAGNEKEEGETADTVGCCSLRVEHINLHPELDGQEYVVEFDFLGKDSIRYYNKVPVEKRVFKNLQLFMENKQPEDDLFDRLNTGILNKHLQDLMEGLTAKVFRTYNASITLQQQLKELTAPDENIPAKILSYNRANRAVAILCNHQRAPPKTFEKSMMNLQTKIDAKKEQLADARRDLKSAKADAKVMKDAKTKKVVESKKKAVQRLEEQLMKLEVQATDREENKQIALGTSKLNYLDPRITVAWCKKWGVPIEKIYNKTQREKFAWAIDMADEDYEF

Sequence of Telomerase reverse transcriptase (Homo sapiens) (O14746 whole entry): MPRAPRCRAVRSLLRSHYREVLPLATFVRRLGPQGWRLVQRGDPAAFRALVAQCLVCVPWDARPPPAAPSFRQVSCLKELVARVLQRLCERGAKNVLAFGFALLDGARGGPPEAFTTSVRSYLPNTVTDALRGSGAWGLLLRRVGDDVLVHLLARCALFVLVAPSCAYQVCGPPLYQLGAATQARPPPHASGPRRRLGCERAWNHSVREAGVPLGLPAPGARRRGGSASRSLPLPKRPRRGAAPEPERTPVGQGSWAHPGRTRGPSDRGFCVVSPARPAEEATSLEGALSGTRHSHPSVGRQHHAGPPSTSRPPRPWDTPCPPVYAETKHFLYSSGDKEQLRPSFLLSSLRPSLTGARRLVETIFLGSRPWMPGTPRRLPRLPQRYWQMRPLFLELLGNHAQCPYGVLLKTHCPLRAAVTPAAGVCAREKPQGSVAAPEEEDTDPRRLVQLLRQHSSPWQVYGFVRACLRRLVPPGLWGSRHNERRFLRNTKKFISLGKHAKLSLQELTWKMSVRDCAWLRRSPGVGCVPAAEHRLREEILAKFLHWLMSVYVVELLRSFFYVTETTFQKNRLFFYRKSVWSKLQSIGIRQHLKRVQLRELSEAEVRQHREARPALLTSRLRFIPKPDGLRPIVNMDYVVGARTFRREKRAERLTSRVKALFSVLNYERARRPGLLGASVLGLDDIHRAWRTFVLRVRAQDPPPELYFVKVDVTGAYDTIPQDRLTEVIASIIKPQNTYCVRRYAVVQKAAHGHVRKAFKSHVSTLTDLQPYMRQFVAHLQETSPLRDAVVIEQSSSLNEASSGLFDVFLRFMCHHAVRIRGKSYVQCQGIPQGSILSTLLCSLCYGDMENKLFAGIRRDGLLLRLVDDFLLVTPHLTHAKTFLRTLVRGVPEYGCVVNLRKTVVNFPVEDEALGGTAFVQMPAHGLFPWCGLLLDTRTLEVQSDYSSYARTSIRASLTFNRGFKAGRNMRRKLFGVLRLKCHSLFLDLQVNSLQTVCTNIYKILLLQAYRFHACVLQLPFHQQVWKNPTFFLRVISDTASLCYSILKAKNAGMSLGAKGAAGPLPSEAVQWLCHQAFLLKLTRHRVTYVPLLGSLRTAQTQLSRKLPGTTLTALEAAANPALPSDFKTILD

Row | SMILES | Ratio IC50 (K562) | Activity [1] | Ratio IC50 (HCT-116) | Activity [2]
1 | N=C(N)NCCNc1c2c(c(NCCNC(=N)N)c3sccc13)C(=O)c1ccccc1C2=O | 3.4 | Active | >25 | 
2 | O=C1c2ccccc2C(=O)c2c1c(NCCNCCO)c1ccsc1c2NCCNCCO | >12 |  |  | 
3 | COc1cccc2c1C(=O)c1c(O)c3c(c(O)c1C2=O)C[C@@](O)(C(=O)CO)C[C@@H]3O[C@H]1C[C@H](N)[C@H](O)[C@H](C)O1 [DOXORUBICIN] | 51 |  |  | 
4 | Cc1csc2c(NCCN(C)C)c3c(c(NCCN(C)C)c12)C(=O)c1ccccc1C3=O | 1.8 |  | 8.4 | 
5 | CN(C)CCNc1c2c(c(NCCN(C)C)c3sccc13)C(=O)c1ccccc1C2=O | 2.3 |  | 0.6 | 
6 | Cc1csc2c(NCCN)c3c(c(NCCN)c12)C(=O)c1ccccc1C3=O | 5 |  | >83 | 
7 | CNCCNc1c2c(c(NCCNC)c3sc(C(=O)NC)cc13)C(=O)c1ccccc1C2=O | >11 |  |  | 
8 | CC(=O)OCCNCCNc1c2c(c(NCCNCCOC(C)=O)c3sccc13)C(=O)c1ccccc1C2=O | >18 |  |  | 
9 | CNC(=O)c1cc2c(NCCN(C)C)c3c(c(NCCN(C)C)c2s1)C(=O)c1ccccc1C3=O | 1.1 |  | 4.2 | 
10 | CN(C)CCNc1c2c(c(NCCN(C)C)c3sc(C(=O)NN)cc13)C(=O)c1ccccc1C2=O | >90 |  | >25 | 
11 | CNCCNc1c2c(c(NCCNC)c3c(C)csc13)C(=O)c1ccccc1C2=O | 2 |  | 2.7 | 
12 | CN(C)CCNc1c2c(c(NCCN(C)C)c3sc(C(=O)NCCO)cc13)C(=O)c1ccccc1C2=O | >6 |  |  | 
13 | CNCCNc1c2c(c(NCCNC)c3[nH]ccc13)C(=O)c1ccccc1C2=O | 3.1 |  | 1 | 
14 | CN(CCNc1c2c(c(NCCN(C)C(=N)N)c3sccc13)C(=O)c1ccccc1C2=O)C(=N)N |  | Active | >24 | 
15 | CNCCNc1c2c(c(NCCNC)c3sccc13)C(=O)c1ccccc1C2=O | 1.4 | Active | 0.6 | Active
